Experimental findings from patent publication US10611742B2, “4-oxo-4,5-dihydrothiazole derivative, preparation method and use thereof” (Institute of Pharmacology and Toxicology Academy of …, priority 2015, dated 2020) are described below.

Structures are written as SMILES. Bounds are passed on as bounds.

Common to all, as to type: cell-based
A short description of series [1]: median toxic concentration on MRC-5 cell. Particulars: human, MRC-5 cells, Table 1-2 (therapeutic effect), read-out: TC50 (the source's name). On the procedure:
(§1) 1. Virus strain: enterovirus EV71 (SZ-98 strain, provided by Chinese Center for Disease Control and Prevention), Vero cell (provided by the Cell Bank of Chinese Academy of Sciences), MRC-5 cell (provided by the Cell Bank of Chinese Academy of Sciences), and RD cell (provided by the Cell Bank of Chinese Academy of Sciences), were subjected to passage culture, respectively, and stored at −80° C.
(§2) 2. Sample treatment: a test sample (Compounds 1-14 and positive control agent) was dissolved in dimethyl sulfoxide (DMSO) to prepare a stock solution, which was stored at −20° C. The stock solution was diluted with DMEM medium (Gibco Company) containing 2% fetal bovine serum (Gibco Company) to prepare a 100 μM solution before use, and was 3-fold diluted with the medium to obtain 8 diluted concentrates.
(§3) 4. Test method: • 4.1 Therapeutic effect: the cells were seeded on a 96-well culture plate, and cultured in a 5% CO2, 37° C. incubator for 24 h. About 100 TCID50 enterovirus EV71 was added to each well. After adsorption at 37° C. for 1 h, the virus solution was discarded, and a drug was added at different diluted concentrates, respectively. Meanwhile, virus control and cell control were set, and cultured at 37° C. […] The virus-inhibition rate of a sample at each concentration was calculated based on the chemiluminescent value, the sample concentration was used as abscissa, and the inhibition rate was used as ordinate, and S-Curve fitting was performed by using Origin software. Half maximal inhibitory concentration (IC50) of each sample for enterovirus EV71 was calculated based on the fitting results. Median toxic concentration (TC50) was determined by the same method. […] To each well, a drug was added at a different diluted concentration, then the cells were cultured at 37° C. for 2 h, and then the drug was discarded. About 100 TCID50 enterovirus EV71 was added to each well, adsorbed at 37° C. for 1.5 h, then the virus solution was discarded, and a maintenance medium free of drug was added. Meanwhile, virus control and cell control were set, and cultured at 37° C. […] The virus-inhibition rate of a sample at each concentration was calculated, and half maximal inhibitory concentration (IC50), median toxic concentration (TC50), and selection index (SI) of each sample for enterovirus EV71 were calculated. The methods for determining and calculating them were as described in Item 4.1

A short description of series [2]: median toxic concentration on RD cell. To be noted: human, RD cells. On the procedure: as §1, §2, §3
Series [3] concerns clathrin-mediated endocytosis of transferrin. As to the kind of experiment: inhibition of clathrin-mediated endocytosis of transferrin in HeLa cells (fluorescence microscope). The procedure: 1. Experiment principle: transferrin was a key protein for clathrin-mediated endocytosis. Therefore, by determining the effect of a compound on transferrin in HeLa cell, the inhibitory effect of the compound on clathrin-mediated endocytosis could be evaluated. 2. Sample treatment: a test compound was dissolved in DMSO to prepare a stock solution, which was stored at −20° C. The stock solution was diluted with HEPES buffer (25 mm HEPES, 20 mm Glucose, 1% BSA, sterile water) to prepare a solution with an initial concentration of […] before use, and was 2-fold diluted with the buffer to obtain 6 diluted concentrations from 1.25 to 40 μmol/L. 4. Test method: HeLa cells (provided by the Cell Bank of Chinese Academy of Sciences) were seeded on a 24-well culture plate coated with 0.1 mg/ml polylysine, a serum-free medium DMEM (Gibco Company) was added at 500 μl/well, and the cells were cultured for one night. To each well, 0.5 μl a test compound at a different diluted concentration or 0.1 v/v % DMSO was added, then the pretreatment was performed for 15 min, and then 20 μg/ml alexa^568 transferrin (2 μl) (TF, SIGMA-ALDRICH Company) was added, and the incubation was carried out at 37° C. for 15 min. The resultant mixture was then washed with Live Cell Imaging Solution (LCIS, Invitrogen Company) and an acid at a low pH ([…] NaCl solution containing 0.5% acetic acid) for 30 s, respectively, followed by fixing with cold methanol, and was observed under fluorescence microscope.

The test system of series [4] is enterovirus EV71 (SZ-98 strain). As to the kind of experiment: anti-EV71 activity, therapeutic effect on RD cell (CPE inhibition, Celltiter Glo). On the procedure: (§4) Test principle: Vero cell, MRC-5 cell, and RD cell were used as host of virus, respectively, and samples were tested for their inhibition of cytopathic effect (CPE) caused by virus.
as §1, §2
(§5) 3. Positive control agent: Con1 (pitstop2) (purchased from AmyJet Scientific Inc., Abcam), a broad-spectrum antiviral inhibitor.
as §3

For series [5] the test system is unchanged. As to the kind of experiment: anti-EV71 activity, preventive effect on Vero cell (CPE inhibition). On the procedure: as §4, §1, §2, §5, §3
Series [6] shares this test system. Description: anti-EV71 activity, therapeutic effect on Vero cell (CPE inhibition, Celltiter Glo). The procedure:
as §4, §1, §2, §5, §3
For orientation: In ATP-based viability assays light output follows the ATP content of the culture.

Series [7] has the same test system. Description: anti-EV71 activity, therapeutic effect on MRC-5 cell (CPE inhibition, Celltiter Glo). To be noted: MRC5. On the procedure:
as §4, §1, §2, §5, §3

In series [8] the test system is Vero cell. As to the kind of experiment: median toxic concentration on Vero cell. The procedure:
as §1, §2, §3

Series [9] in a line: median toxic concentration on Vero cell. To be noted: African green monkey, Vero cells. On the procedure:
as §1, §2, §3

For series [10], the system named is enterovirus EV71 (SZ-98 strain). Description: anti-EV71 activity, preventive effect on RD cell (CPE inhibition). The procedure: as §4, §1, §2, §5, §3

In general, inhibition refers to the percentage by which the read-out fell short of the control. The term IC50 denotes the concentration needed to halve the response being measured. Take `CCN(CC)c1ccc(/C=C2\SC(NS(=O)(=O)c3cccc4ccccc34)=NC2=O)c(O)c1` [Compound 3, Naphthalene-1-sulfonic acid [5-(2-hydroxy-4-diethylamino-benzylidene)-4-oxo-4,5-dihydro-thiazol-2-yl] amide]: the CC50 is 12.8 µM in [1]; 12.8 µM in series [2] (read-out: TC50 (the source's name)); 12.8 µM in series [9] (Table 1-1 (therapeutic effect), read-out: TC50 (the source's name)). The CC50 at 2 h is 12.8 µM in [2] (Table 2-2 (preventive effect), read-out: TC50) and 12.8 µM in series [9] (Table 2-1 (preventive effect), read-out: TC50). In addition, in series [3] (20 μM), the “endocytosis of transferrin at 20 μM (in words)” value was “completely inhibited”. Also, the “inhibitory effect on endocytosis of transferrin (in words)” value in series [3] (1.25 to 40 μmol/L) is reported as “dose-dependent”. For the same molecule, the inhibition at 20 µM in series [3] (Homo sapiens, 20 μM compound, read-out: Inhibition rate) stood at 100%. Moreover, the “anti-EV71 activity (in words)” value in series [4] is “better anti-EV71 activity”. Further, the IC50 in series [4] (EV71 (SZ-98 strain)) was 7.41 µM; in series [4] (Enterovirus, EV71) it was 7.41 µM; in series [5], above 7.41 µM; in series [6] (EV71 (SZ-98 strain), therapeutic effect on Vero cell, read-out: IC50) it was 5.14 µM; in [6] (Enterovirus, EV71, Vero cell, read-out: activity (IC50)), 5.14 µM; in series [7], above 7.41 µM. The molecule further came in with an IC50 in [10] above 7.41 µM. The “toxicity compared with the positive control agent (in words)” value in series [8] was “a lower toxicity than the positive control agent”.
